Measured values reported in patent US6960574B2, “Antagonists of RF-amide neuropeptides” (University of Florida, priority 2002, dated 2005).
Square brackets hold non-standard residues; d marks the D form. Peptide text beside a SMILES is read from it. * marks the point of attachment. ξ: configuration not given here. Dansyl = CN(C)c1cccc2c(S(=O)(=O)*)cccc12; ξL = CC(C)CC(N)C(=O)O

These compounds were tested on receptor labeled by the radioiodinated analogue of 1 (4, [125I]-YLFQPQRF-NH2); neuropeptide FF receptor (assay: Competitive radioligand binding against 4 ([125I]Y8F-amide)). Conditions: mixture-based positional scanning; difference from averaged radioligand displacement of whole library (0); about 80 a.u. = 10-fold change in Ki.
Source text: Additionally, three-dimensional (3-D) molecular models of the known smaller-size neuropeptide FF antagonists 3 and 3a were constructed and their low-energy conformations were obtained in the AMBER force-field [Weiner, et al., J. Comput. Chem. 1986, 7, […].] by molecular dynamics calculations involving simulated annealing. A semi-empirical quantum chemical method with the PM3 parameterization [Stewart, J. Comput. Chem. 1989, 10, 209-220.] was used for the final geometry optimization. […] At least one of the rings in domain B is aromatic. No similarity between 3 and 3a outside these domains were apparent; therefore, the simultaneous presence of A and B domains in the structure of neuropeptide FF (1) antagonists is critical to the invention. Apparently, structural subunits (domain C) outside domains A and B should function in a cooperative manner in directing the pharmacophores into proper geometric positions when improved binding to the cognate receptor is to be obtained, which is associated with the improvement of the desired pharmacological effect. An approach involving mixture-based synthetic combinatorial libraries and positional scanning [(a) Houghten, et al., J. Med Chem. 1999, 42, 3743-3778.] was adopted in the search for preferred structural motifs in domain C that assist in achieving this objective in this invention. To allow for the use of 3 as a reference in this process, the guadinino group (A) was incorporated as part of an L-2-amino-5-{[amino(imino)methyl]amino}pentanoyl (arginyl, R, Arg) residue and 5-dimethylamino-1-naphthalenesulphonyl (dansyl) was chosen to form B (However, it must be emphasized that both R and dansyl are replaceable with moieties that bestow A and B domain attributes described in the invention).
Upon screening for residues to replace the glutamine of 3, serine (S) was the only building block in this position that increased the displacement of 4 in the radioligand-binding assay. Therefore, motifs present in dansyl-Gly-Ser-Arg-NH2, dansyl-Gly-Gln-Arg-NH2, dansyl-Gln-Ser-Arg-NH2, and dansyl-Gln-Gln-Arg-NH2 were chosen based on their affinity to the cognate receptor for further consideration as primary templates when designing the domain C of the compounds described in the invention herein. […]
In the case of `C[C@H](NC(=O)[C@H](C)NS(=O)(=O)c1cccc2c(N(C)C)cccc12)C(=O)N[C@@H](CCCNC(=N)N)C(N)=O` [Dansyl-AAR-amide] (Dansyl-Ala-Ala-Arg-NH2), the “Relative Binding Index (RBI)” value was −37 a.u. `C[C@H](NS(=O)(=O)c1cccc2c(N(C)C)cccc12)C(=O)N[C@@H](CC(=O)O)C(=O)N[C@@H](CCCNC(=N)N)C(N)=O` [Dansyl-ADR-amide] (Dansyl-Ala-Asp-Arg-NH2) was tested, and the “Relative Binding Index (RBI)” value was −6 a.u. For `C[C@H](NS(=O)(=O)c1cccc2c(N(C)C)cccc12)C(=O)N[C@@H](CCC(=O)O)C(=O)N[C@@H](CCCNC(=N)N)C(N)=O` [Dansyl-AER-amide] (Dansyl-Ala-Glu-Arg-NH2), the “Relative Binding Index (RBI)” value was 12 a.u. For `C[C@H](NS(=O)(=O)c1cccc2c(N(C)C)cccc12)C(=O)N[C@@H](Cc1ccccc1)C(=O)N[C@@H](CCCNC(=N)N)C(N)=O` [Dansyl-AFR-amide] (Dansyl-Ala-Phe-Arg-NH2), the “Relative Binding Index (RBI)” value was 11 a.u. For `C[C@H](NS(=O)(=O)c1cccc2c(N(C)C)cccc12)C(=O)NCC(=O)N[C@@H](CCCNC(=N)N)C(N)=O` [Dansyl-AGR-amide] (Dansyl-Ala-Gly-Arg-NH2), the “Relative Binding Index (RBI)” value was 18 a.u. In the case of `C[C@H](NS(=O)(=O)c1cccc2c(N(C)C)cccc12)C(=O)N[C@@H](Cc1c[nH]cn1)C(=O)N[C@@H](CCCNC(=N)N)C(N)=O` [Dansyl-AHR-amide] (Dansyl-Ala-His-Arg-NH2), the “Relative Binding Index (RBI)” value was 6 a.u. With `CC[C@H](C)[C@H](NC(=O)[C@H](C)NS(=O)(=O)c1cccc2c(N(C)C)cccc12)C(=O)N[C@@H](CCCNC(=N)N)C(N)=O` [Dansyl-AIR-amide] (Dansyl-Ala-Ile-Arg-NH2) the “Relative Binding Index (RBI)” value was 19 a.u. With `C[C@H](NS(=O)(=O)c1cccc2c(N(C)C)cccc12)C(=O)N[C@@H](CCCCN)C(=O)N[C@@H](CCCNC(=N)N)C(N)=O` [Dansyl-AKR-amide] (Dansyl-Ala-Lys-Arg-NH2) the “Relative Binding Index (RBI)” value was 10 a.u. `CC(C)CC(NC(=O)[C@H](C)NS(=O)(=O)c1cccc2c(N(C)C)cccc12)C(=O)N[C@@H](CCCNC(=N)N)C(N)=O` (stereo partly drawn) [Dansyl-ALR-amide] (Dansyl-Ala-[ξL]-Arg-NH2) was tested, and the “Relative Binding Index (RBI)” value was 4 a.u. With `CSCC[C@H](NC(=O)[C@H](C)NS(=O)(=O)c1cccc2c(N(C)C)cccc12)C(=O)N[C@@H](CCCNC(=N)N)C(N)=O` [Dansyl-AMR-amide] (Dansyl-Ala-Met-Arg-NH2) the “Relative Binding Index (RBI)” value was 12 a.u. In the case of `C[C@H](NS(=O)(=O)c1cccc2c(N(C)C)cccc12)C(=O)N[C@@H](CC(N)=O)C(=O)N[C@@H](CCCNC(=N)N)C(N)=O` [Dansyl-ANR-amide] (Dansyl-Ala-Asn-Arg-NH2), the “Relative Binding Index (RBI)” value was 13 a.u. With `C[C@H](NS(=O)(=O)c1cccc2c(N(C)C)cccc12)C(=O)N1CCC[C@H]1C(=O)N[C@@H](CCCNC(=N)N)C(N)=O` [Dansyl-APR-amide] (Dansyl-Ala-Pro-Arg-NH2) the “Relative Binding Index (RBI)” value was 15 a.u. In the case of `C[C@H](NS(=O)(=O)c1cccc2c(N(C)C)cccc12)C(=O)N[C@@H](CCC(N)=O)C(=O)N[C@@H](CCCNC(=N)N)C(N)=O` [Dansyl-AQR-amide] (Dansyl-Ala-Gln-Arg-NH2), the “Relative Binding Index (RBI)” value was 26 a.u. With `C[C@H](NS(=O)(=O)c1cccc2c(N(C)C)cccc12)C(=O)N[C@@H](CCCNC(=N)N)C(=O)N[C@@H](CCCNC(=N)N)C(N)=O` [Dansyl-ARR-amide] (Dansyl-Ala-Arg-Arg-NH2) the “Relative Binding Index (RBI)” value was 11 a.u. With `C[C@H](NS(=O)(=O)c1cccc2c(N(C)C)cccc12)C(=O)N[C@@H](CO)C(=O)N[C@@H](CCCNC(=N)N)C(N)=O` [Dansyl-ASR-amide] (Dansyl-Ala-Ser-Arg-NH2) the “Relative Binding Index (RBI)” value was 33 a.u. `C[C@H](NS(=O)(=O)c1cccc2c(N(C)C)cccc12)C(=O)N[C@H](C(=O)N[C@@H](CCCNC(=N)N)C(N)=O)[C@@H](C)O` [Dansyl-ATR-amide] (Dansyl-Ala-Thr-Arg-NH2) was tested, and the “Relative Binding Index (RBI)” value was 18 a.u. For `CC(C)[C@H](NC(=O)[C@H](C)NS(=O)(=O)c1cccc2c(N(C)C)cccc12)C(=O)N[C@@H](CCCNC(=N)N)C(N)=O` [Dansyl-AVR-amide] (Dansyl-Ala-Val-Arg-NH2), the “Relative Binding Index (RBI)” value was 7 a.u. For `C[C@H](NS(=O)(=O)c1cccc2c(N(C)C)cccc12)C(=O)N[C@@H](Cc1c[nH]c2ccccc12)C(=O)N[C@@H](CCCNC(=N)N)C(N)=O` [Dansyl-AWR-amide] (Dansyl-Ala-Trp-Arg-NH2), the “Relative Binding Index (RBI)” value was 21 a.u. For `C[C@H](NS(=O)(=O)c1cccc2c(N(C)C)cccc12)C(=O)N[C@@H](Cc1ccc(O)cc1)C(=O)N[C@@H](CCCNC(=N)N)C(N)=O` [Dansyl-AYR-amide] (Dansyl-Ala-Tyr-Arg-NH2), the “Relative Binding Index (RBI)” value was 11 a.u. For `C[C@H](NC(=O)[C@H](CC(=O)O)NS(=O)(=O)c1cccc2c(N(C)C)cccc12)C(=O)N[C@@H](CCCNC(=N)N)C(N)=O` [Dansyl-DAR-amide] (Dansyl-Asp-Ala-Arg-NH2), the “Relative Binding Index (RBI)” value was −55 a.u. In the case of `CN(C)c1cccc2c(S(=O)(=O)N[C@@H](CC(=O)O)C(=O)N[C@@H](CC(=O)O)C(=O)N[C@@H](CCCNC(=N)N)C(N)=O)cccc12` [Dansyl-DDR-amide] (Dansyl-Asp-Asp-Arg-NH2), the “Relative Binding Index (RBI)” value was −24 a.u. With `CN(C)c1cccc2c(S(=O)(=O)N[C@@H](CC(=O)O)C(=O)N[C@@H](CCC(=O)O)C(=O)N[C@@H](CCCNC(=N)N)C(N)=O)cccc12` [Dansyl-DER-amide] (Dansyl-Asp-Glu-Arg-NH2) the “Relative Binding Index (RBI)” value was −5 a.u. For `CN(C)c1cccc2c(S(=O)(=O)N[C@@H](CC(=O)O)C(=O)N[C@@H](Cc3ccccc3)C(=O)N[C@@H](CCCNC(=N)N)C(N)=O)cccc12` [Dansyl-DFR-amide] (Dansyl-Asp-Phe-Arg-NH2), the “Relative Binding Index (RBI)” value was −7 a.u. In the case of `CN(C)c1cccc2c(S(=O)(=O)N[C@@H](CC(=O)O)C(=O)NCC(=O)N[C@@H](CCCNC(=N)N)C(N)=O)cccc12` [Dansyl-DGR-amide] (Dansyl-Asp-Gly-Arg-NH2), the “Relative Binding Index (RBI)” value was 0 a.u. For `CN(C)c1cccc2c(S(=O)(=O)N[C@@H](CC(=O)O)C(=O)N[C@@H](Cc3c[nH]cn3)C(=O)N[C@@H](CCCNC(=N)N)C(N)=O)cccc12` [Dansyl-DHR-amide] (Dansyl-Asp-His-Arg-NH2), the “Relative Binding Index (RBI)” value was −11 a.u. `CC[C@H](C)[C@H](NC(=O)[C@H](CC(=O)O)NS(=O)(=O)c1cccc2c(N(C)C)cccc12)C(=O)N[C@@H](CCCNC(=N)N)C(N)=O` [Dansyl-DIR-amide] (Dansyl-Asp-Ile-Arg-NH2) was tested, and the “Relative Binding Index (RBI)” value was 1 a.u. For `CN(C)c1cccc2c(S(=O)(=O)N[C@@H](CC(=O)O)C(=O)N[C@@H](CCCCN)C(=O)N[C@@H](CCCNC(=N)N)C(N)=O)cccc12` [Dansyl-DKR-amide] (Dansyl-Asp-Lys-Arg-NH2), the “Relative Binding Index (RBI)” value was −8 a.u. For `CC(C)C[C@H](NC(=O)[C@H](CC(=O)O)NS(=O)(=O)c1cccc2c(N(C)C)cccc12)C(=O)N[C@@H](CCCNC(=N)N)C(N)=O` [Dansyl-DLR-amide] (Dansyl-Asp-Leu-Arg-NH2), the “Relative Binding Index (RBI)” value was −14 a.u. With `CSCC[C@H](NC(=O)[C@H](CC(=O)O)NS(=O)(=O)c1cccc2c(N(C)C)cccc12)C(=O)N[C@@H](CCCNC(=N)N)C(N)=O` [Dansyl-DMR-amide] (Dansyl-Asp-Met-Arg-NH2) the “Relative Binding Index (RBI)” value was −6 a.u. `CN(C)c1cccc2c(S(=O)(=O)N[C@@H](CC(=O)O)C(=O)N[C@@H](CC(N)=O)C(=O)N[C@@H](CCCNC(=N)N)C(N)=O)cccc12` [Dansyl-DNR-amide] (Dansyl-Asp-Asn-Arg-NH2) was tested, and the “Relative Binding Index (RBI)” value was −4 a.u.
